Structures are written as SMILES.

By melting point is commonly meant the temperature, or range, at which the solid turns liquid. For the molecule `Cc1nc(N2C[C@@H](C)N(Cc3ccc(C(F)(F)F)cc3)C2=O)sc1C(N)=O` [Example 1.16, (R)-4-methyl-2-(4-methyl-2-oxo-3-(4-(trifluoromethyl)benzyl)imidazolidin-1-yl)thiazole-5-carboxamide], the melting point was in the range of 110 to 112 °C.
As for `Cc1nc(N2C[C@H](C)N(Cc3ccc(F)cc3)C2=O)sc1C(=O)NCc1cccnc1` [Example 2, (S)-2-(3-(4-Fluorobenzyl)-4-methyl-2-oxoimidazolidin-1-yl)-4-methyl-N-(pyridin-3-ylmethyl)thiazole-5-carboxamide], the melting point lay within 67 to 70 °C.
`Cc1nc(N2C[C@H](C)N(Cc3ccc(F)cc3)C2=O)sc1C(=O)NCc1ccc(F)c(F)c1` [Example 2.1, (S)-N-(3,4-difluorobenzyl)-2-(3-(4-fluorobenzyl)-4-methyl-2-oxoimidazolidin-1-yl)-4-methylthiazole-5-carboxamide] displayed a melting point of 62 to 65 °C.
`Cc1cc(CNC(=O)c2sc(N3CCN(Cc4ccc(F)cc4)C3=O)nc2C)[nH]n1` [Example 2.2, 2-(3-(4-fluorobenzyl)-2-oxoimidazolidin-1-yl)-4-methyl-N-((3-methyl-1H-pyrazol-5-yl)methyl)thiazole-5-carboxamide] gave a melting point of 225 to 226 °C.
The result for `Cc1cc(CNC(=O)c2sc(-n3cnn(Cc4ccc(F)cc4)c3=O)nc2C)[nH]n1` [Example 2.3, 2-(1-(4-Fluorobenzyl)-5-oxo-1H-1,2,4-triazol-4(5H)-yl)-4-methyl-N-((3-methyl-1H-pyrazol-5-yl)methyl)thiazole-5-carboxamide] reads 234 to 235 °C; that for `C=CCCN1CCN(c2nc(C)c(C(=O)NCc3cccnc3)s2)C1=O` [Example 2.4, 2-(3-(but-3-enyl)-2-oxoimidazolidin-1-yl)-4-methyl-N-(pyridin-3-ylmethyl)thiazole-5-carboxamide], 144 to 145 °C; that for `Cc1nc(N2C[C@@H](C)N(Cc3ccc(F)cc3)C2=O)sc1C(=O)NCc1ccccn1` [Example 2.5, (R)-2-(3-(4-fluorobenzyl)-4-methyl-2-oxoimidazolidin-1-yl)-4-methyl-N-(pyridin-2-ylmethyl)thiazole-5-carboxamide], 118 to 119 °C.
For the molecule `Cc1nc(N2C[C@@H](C)N(Cc3ccc(F)cc3)C2=O)sc1C(=O)NCc1ccc(F)c(F)c1` [Example 2.6, (R)-N-(3,4-difluorobenzyl)-2-(3-(4-fluorobenzyl)-4-methyl-2-oxoimidazolidin-1-yl)-4-methylthiazole-5-carboxamide], the melting point fell in the range of 134 to 135 °C.
The result for `Cc1nc(N2C[C@@H](C)N(Cc3ccc(F)cc3)C2=O)sc1C(=O)NCc1cncs1` [Example 2.8, (R)-2-(3-(4-fluorobenzyl)-4-methyl-2-oxoimidazolidin-1-yl)-4-methyl-N-(thiazol-5-ylmethyl)thiazole-5-carboxamide] reads 66 to 69 °C; that for `Cc1cc(CNC(=O)c2sc(N3C[C@@H](C)N(Cc4ccc(F)cc4)C3=O)nc2C)[nH]n1` [Example 2.9, (R)-2-(3-(4-fluorobenzyl)-4-methyl-2-oxoimidazolidin-1-yl)-4-methyl-N-((3-methyl-1H-pyrazol-5-yl)methyl)thiazole-5-carboxamide], 215 to 216 °C; that for `Cc1nc(N2C[C@@H](C)N(Cc3ccc(F)cc3)C2=O)sc1C(=O)NCc1cc(F)cc(F)c1` [Example 2.10, (R)-N-(3,5-difluorobenzyl)-2-(3-(4-fluorobenzyl)-4-methyl-2-oxoimidazolidin-1-yl)-4-methylthiazole-5-carboxamide], 159 to 160 °C.
`Cc1cc(CNC(=O)c2sc(N3C[C@@H](C)N(Cc4ccc(F)cc4)C3=O)nc2C)no1` [Example 2.11, (R)-2-(3-(4-fluorobenzyl)-4-methyl-2-oxoimidazolidin-1-yl)-4-methyl-N-((5-methylisoxazol-3-yl)methyl)thiazole-5-carboxamide] gave a melting point of 139 to 140 °C.
Regarding `Cc1nc(N2C[C@@H](C)N(Cc3cc(F)cc(F)c3)C2=O)sc1C(=O)NCc1ccccn1` [Example 2.12, (R)-2-(3-(3,5-difluorobenzyl)-4-methyl-2-oxoimidazolidin-1-yl)-4-methyl-N-(pyridin-2-ylmethyl)thiazole-5-carboxamide], the melting point lay in the range of 147 to 148 °C.
The value for `Cc1cnc(CNC(=O)c2sc(N3C[C@@H](C)N(Cc4cc(F)cc(F)c4)C3=O)nc2C)cn1` [Example 2.13, (R)-2-(3-(3,5-difluorobenzyl)-4-methyl-2-oxoimidazolidin-1-yl)-4-methyl-N-((5-methylpyrazin-2-yl)methyl)thiazole-5-carboxamide] was 131 to 132 °C; that for `Cc1cc(CNC(=O)c2sc(N3C[C@@H](C)N(Cc4cc(F)cc(F)c4)C3=O)nc2C)no1` [Example 2.14, (R)-2-(3-(3,5-difluorobenzyl)-4-methyl-2-oxoimidazolidin-1-yl)-4-methyl-N-((5-methylisoxazol-3-yl)methyl)thiazole-5-carboxamide] was 63 to 66 °C; that for `Cc1nc(N2C(=O)N(Cc3ccc(F)cc3)C[C@@H]2C)sc1C(=O)NCc1ccccn1` [Example 2.15, (S)-2-(3-(4-fluorobenzyl)-5-methyl-2-oxoimidazolidin-1-yl)-4-methyl-N-(pyridin-2-ylmethyl)thiazole-5-carboxamide] was 112 to 113 °C.
The molecule `Cc1nc(N2C(=O)N(Cc3ccc(F)cc3)C[C@@H]2C)sc1C(=O)NCc1cnn(C)c1` [Example 2.16, (S)-2-(3-(4-fluorobenzyl)-5-methyl-2-oxoimidazolidin-1-yl)-4-methyl-N-((1-methyl-1H-pyrazol-4-yl)methyl)thiazole-5-carboxamide] displayed a melting point of 176 to 177 °C.
Turning to `Cc1cc(CNC(=O)c2sc(N3C(=O)N(Cc4ccc(F)cc4)C[C@@H]3C)nc2C)no1` [Example 2.17, (S)-2-(3-(4-fluorobenzyl)-5-methyl-2-oxoimidazolidin-1-yl)-4-methyl-N-((5-methylisoxazol-3-yl)methyl)thiazole-5-carboxamide], the melting point was 174 to 175 °C.
In turn, `Cc1nc(N2C(=O)N(Cc3ccc(F)cc3)C[C@H]2C)sc1C(=O)NCc1ccccn1` [Example 2.18, (R)-2-(3-(4-fluorobenzyl)-5-methyl-2-oxoimidazolidin-1-yl)-4-methyl-N-(pyridin-2-ylmethyl)thiazole-5-carboxamide] had a melting point of 55 to 57 °C.
For the molecule `Cc1nc(N2C(=O)N(Cc3ccc(F)cc3)C[C@H]2C)sc1C(=O)NCc1cncs1` [Example 2.19, (R)-2-(3-(4-fluorobenzyl)-5-methyl-2-oxoimidazolidin-1-yl)-4-methyl-N-(thiazol-5-ylmethyl)thiazole-5-carboxamide], the melting point was in the range of 70 to 73 °C.
The value for `Cc1nc(N2C[C@@H](C)N(Cc3ccc(C(F)(F)F)cc3)C2=O)sc1C(=O)NCc1ccccn1` [Example 2.20, (R)-4-methyl-2-(4-methyl-2-oxo-3-(4-(trifluoromethyl)benzyl)imidazolidin-1-yl)-N-(pyridin-2-ylmethyl)thiazole-5-carboxamide] was 136 to 137 °C; that for `Cc1nnc(-c2sc(N3CCN(Cc4ccc(C(F)(F)F)cc4)C3=O)nc2C)[nH]1` [Example 3, 1-(4-methyl-5-(5-methyl-4H-1,2,4-triazol-3-yl)thiazol-2-yl)-3-(4-(trifluoromethyl)benzyl)imidazolidin-2-one] was 273 to 274 °C; that for `Cc1nnc(-c2sc(N3CCN(Cc4ccc(F)cc4)C3=O)nc2C)[nH]1` [Example 3.1, 1-(4-fluorobenzyl)-3-[4-methyl-5-(5-methyl-4H-1,2,4-triazol-3-yl)thiazol-2-yl]imidazolidin-2-one] was 248 to 249 °C.
On to `Cc1cc(-c2sc(N3CCN(CC4CC4)C3=O)nc2C)n[nH]1` [Example 6, 1-(cyclopropylmethyl)-3-(4-methyl-5-(5-methyl-1H-pyrazol-3-yl)thiazol-2-yl)imidazolidin-2-one], for which the melting point was in the range of 231 to 233 °C.
The value for `Cc1cc(-c2sc(N3CCN(Cc4cccc(C(F)(F)F)c4)C3=O)nc2C)n[nH]1` [Example 6.1, 1-(4-methyl-5-(5-methyl-1H-pyrazol-3-yl)thiazol-2-yl)-3-(3-(trifluoromethyl)benzyl)imidazolidin-2-one] was 163 to 164 °C; that for `Cc1cc(-c2sc(N3CCN(Cc4ccc(F)cc4)C3=O)nc2C)n[nH]1` [Example 6.2, 1-(4-fluorobenzyl)-3-(4-methyl-5-(5-methyl-1H-pyrazol-3-yl)thiazol-2-yl)imidazolidin-2-one] was 218 to 221 °C.
The result for `Cc1nc(N2CCN(CC3CC3)C2=O)sc1-c1cc[nH]n1` [Example 7, 1-(cyclopropylmethyl)-3-(4-methyl-5-(1H-pyrazol-3-yl)thiazol-2-yl)imidazolidin-2-one] reads 169 to 171 °C; that for `Cc1nc(N2CCN(CCC3CC3)C2=O)sc1-c1cc[nH]n1` [Example 8, 1-(2-cyclopropylethyl)-3-(4-methyl-5-(1H-pyrazol-3-yl)thiazol-2-yl)imidazolidin-2-one], 147 to 149 °C; that for `Cc1nc(N2CCN(Cc3ccc(F)cc3)C2=O)sc1-c1cc[nH]n1` [Example 9, 1-(4-fluorobenzyl)-3-(4-methyl-5-(1H-pyrazol-3-yl)thiazol-2-yl)imidazolidin-2-one], 239 to 242 °C.
Regarding `Cc1nc(N2CCN(Cc3ccccc3)C2=O)sc1C(N)=O` [Example 10, 2-(3-benzyl-2-oxoimidazolidin-1-yl)-4-methylthiazole-5-carboxamide], the melting point lay within 217 to 218 °C.
The result for `Cc1nnc(-c2sc(N3CCN(Cc4ccccc4)C3=O)nc2C)[nH]1` [Example 11, 1-benzyl-3-(4-methyl-5-(5-methyl-4H-1,2,4-triazol-3-yl)thiazol-2-yl)imidazolidin-2-one] reads 284 to 287 °C.
With `Cc1nc(N2CCN(CC3CC3)C2=O)sc1C(=O)NCc1cncc(F)c1` [Example 12, 2-(3-(cyclopropylmethyl)-2-oxoimidazolidin-1-yl)-N-((5-fluoropyridin-3-yl)methyl)-4-methylthiazole-5-carboxamide], the melting point fell in the range of 144 to 145 °C.

Source of the values: patent US8318949B2, “Organic compounds” (Novartis AG, priority 2008, dated 2012).
